Values after ≈ are worked out from the molar mass of the structure shown.
Key:
[1] = tested on: rumen flora; assay: In vitro rumen fluid incubation, volatile fatty acid production; set-up: species or system steer; conditions: 1 ppm in rumen fluid, 16 hours at 38° C
Source text: As discussed hereinabove, efficiency of carbohydrate utilization in ruminants is increased by treatments which stimulate the animal's rumen flora to produce propionate compounds rather than acetate or butyrate compounds. The efficiency of feed use can be monitored by observing the production and concentration of propionate compounds in the rumen, using the following methods:
Rumen fluid is obtained from a steer with a surgically-installed fistula opening into the rumen. The steer is maintained on a high-grain ration. A sample of rumen fluid is strained through four layers of cheesecloth, and the filtrate is collected. The particulate matter retained by the cheesecloth is resuspended in enough physiological buffer to return it to the original volume of the rumen fluid, and this suspension is strained again. The buffer used has the following composition:
The two filtrates are combined and allowed to stand until particulate matter separates to the top. The clear layer is separated, diluted with the same buffer (1:1) and then adjusted to between pH 6.8 to 7.0.
The diluted rumen fluid (10 ml) is placed in a 25-ml flask with 40 mg of the above-described feed, an additional 1 mg of soybean protein, and the compound to be tested. Four replicate flasks are used per treatment. Two sets of four control flasks each are also employed. A zero-time control and an incubated 16-hour control are used. All test flasks are incubated for 16 hours at 38° C. […] The samples are allowed to settle, and the supernatants are analyzed by gas chromatography for propionate, acetate, and butyrate compounds.

[2] = Microbiological activity of A-28086-I
[3] = Electrometric titration (pKa of titratable group); conditions: 80% aqueous dimethylformamide
[4] = tested on: Sarcina lutea ATCC9341; assay: Disc-diffusion zone of inhibition, Sarcina lutea ATCC9341; assay type: cell-based; conditions: Micrococcus luteus, 6 mm pads, 1 mg/ml
[5] = tested on: Bacillus subtilis ATCC6633; assay: Disc-diffusion zone of inhibition, Bacillus subtilis ATCC6633; assay type: cell-based; conditions: 6 mm pads, 1 mg/ml
[6] = tested on: M. gallisepticum; assay: In vitro broth-dilution MIC, Mycoplasma; assay type: cell-based; conditions: Mycoplasmoides gallisepticum
Source text: (§1) Activity against Mycoplasma is another useful aspect of the antimicrobial activity of the A-28086 compounds. Mycoplasma species, also known as pleuropneumonia-like (PPLO) organisms, are pathogenic to man and various animals. Agents active against PPLO organisms are especially needed by the poultry industry. The minimal inhibitory concentrations (MIC) of antibiotic A-28086 factor A against various Mycoplasma species, as determined by in vitro broth-dilution studies, are summarized in Table VII below: […]

[7] = tested on: M. synoviae; assay: In vitro broth-dilution MIC, Mycoplasma; assay type: cell-based; conditions: Mycoplasmopsis synoviae
Source text: as §1

[8] = tested on: M. hyorhinis; assay: In vitro broth-dilution MIC, Mycoplasma; assay type: cell-based; conditions: Mesomycoplasma hyorhinis
Source text: as §1

[9] = tested on: Fusarium moniliforme; assay: Disc-diffusion zone of inhibition, Fusarium moniliforme; assay type: cell-based; conditions: Fusarium verticillioides; 6 mm pads, 1 mg/ml
[10] = Solubility in organic solvents and water; assay type: physicochemical
[11] = tested on: sheep; assay: Feed-utilization efficiency in sheep; assay type: in vivo; conditions: 56 days
[12] = tested on: Staphylococcus aureus; assay: Disc-diffusion zone of inhibition, Staphylococcus aureus; assay type: cell-based; conditions: 6 mm pads, 1 mg/ml
[13] = tested on: Clostridium septicum bovine; assay: Agar-dilution MIC, anaerobic bacteria; assay type: cell-based; conditions: 24-hour incubation
Procedure: (§2) The minimal inhibitory concentrations (MIC) at which A-28086 factor A inhibits various anaerobic bacteria, determined by standard agar-dilution assay, are summarized in Table VI. Endpoints were read after 24-hour incubation.

[14] = tested on: Peptococcus anaerobius; assay: Agar-dilution MIC, anaerobic bacteria; assay type: cell-based; conditions: 24-hour incubation
Procedure: as §2

[15] = tested on: Propionibacterium acnes 79; assay: Agar-dilution MIC, anaerobic bacteria; assay type: cell-based; conditions: Cutibacterium acnes, 24-hour incubation
Procedure: as §2

[16] = tested on: Fusobacterium necrophorum; assay: Agar-dilution MIC, anaerobic bacteria; assay type: cell-based; conditions: 24-hour incubation
Procedure: as §2

[17] = tested on: Bacteroides fragilis ssp. fragilis; assay: Agar-dilution MIC, anaerobic bacteria; assay type: cell-based; conditions: 24-hour incubation
Procedure: as §2

[18] = tested on: Propionibacterium acnes 44; assay: Agar-dilution MIC, anaerobic bacteria; assay type: cell-based; conditions: Cutibacterium acnes, 24-hour incubation
Procedure: as §2

[19] = tested on: Clostridium inocuum; assay: Agar-dilution MIC, anaerobic bacteria; assay type: cell-based; conditions: 24-hour incubation
Procedure: as §2

[20] = tested on: Actinomyces bovis; assay: Agar-dilution MIC, anaerobic bacteria; assay type: cell-based; conditions: 24-hour incubation
Procedure: as §2

[21] = tested on: Veillonella alcalescens; assay: Agar-dilution MIC, anaerobic bacteria; assay type: cell-based; conditions: Veillonella parvula, 24-hour incubation
Procedure: as §2

[22] = tested on: Clostridium septicum; assay: Agar-dilution MIC, anaerobic bacteria; assay type: cell-based; conditions: 24-hour incubation
Procedure: as §2

[23] = tested on: Bacteroides fragilis ssp. vulgatis 1211; assay: Agar-dilution MIC, anaerobic bacteria; assay type: cell-based; conditions: 24-hour incubation
Procedure: as §2

[24] = tested on: Eubacterium aerofaciens; assay: Agar-dilution MIC, anaerobic bacteria; assay type: cell-based; conditions: Collinsella aerofaciens, 24-hour incubation
Procedure: as §2

[25] = tested on: Fusobacterium symbiosum; assay: Agar-dilution MIC, anaerobic bacteria; assay type: cell-based; conditions: 24-hour incubation
Procedure: as §2

[26] = tested on: Bacteroides fragilis ssp. vulgatis No. 1563; assay: Agar-dilution MIC, anaerobic bacteria; assay type: cell-based; conditions: 24-hour incubation
Procedure: as §2

[27] = tested on: Bacteroides fragilis ssp. thetaiotacmicron; assay: Agar-dilution MIC, anaerobic bacteria; assay type: cell-based; conditions: 24 h
Procedure: as §2

[28] = tested on: Peptostreptococcus intermedius; assay: Agar-dilution MIC, anaerobic bacteria; assay type: cell-based; conditions: 24-hour incubation
Procedure: as §2

[29] = tested on: Clostridium ramosum; assay: Agar-dilution MIC, anaerobic bacteria; assay type: cell-based; conditions: Thomasclavelia ramosa, 24-hour incubation
Procedure: as §2

[30] = tested on: Clostridium perfringens; assay: microbe, parasite or virus in culture; assay type: cell-based; conditions: 24 h
[31] = Acute toxicity in mice, intraperitoneal; conditions: mouse, in vivo, ip
[32] = tested on: Candida tropicalis; assay: Disc-diffusion zone of inhibition, Candida tropicalis; assay type: cell-based; conditions: 6 mm pads, 1 mg/ml
[33] = tested on: M. hypopneumoniae; assay: In vitro broth-dilution MIC, Mycoplasma; assay type: cell-based, Mycoplasma hypopneumoniae
Source text: as §1

[34] = tested on: Eimeria brunetti; assay: Anticoccidial activity in chicks challenged with Eimeria brunetti (Table IX); assay type: in vivo, broiler cockerels; conditions: 0.005 % in feed
Source text: ^1 Four replicates, 5 broiler cockerels each

[35] = tested on: Saccharomyces pastorianum ATCC2366; assay: Disc-diffusion zone of inhibition, Saccharomyces pastorianum ATCC2366; assay type: cell-based
[36] = tested on: Mycobacterium avium ATCC7992; assay: Disc-diffusion zone of inhibition, Mycobacterium avium ATCC7992; assay type: cell-based; conditions: 6 mm pads, 1 mg/ml
[37] = tested on: Transmissible Gastro-enteritis virus; assay type: cell-based; conditions: tissue-culture test
[38] = tested on: M. hyosynoviae; assay: In vitro broth-dilution MIC, Mycoplasma; assay type: cell-based, Mycoplasma hyosynoviae
Source text: as §1

CCC(=O)OC1C=CC2(OC(C(CC)C(=O)C(C)C(O)C(C)C3OC(C(CC)C(=O)O)C(C)CC3C)C(C)CC2C)OC12CCC(C)(C1CCC(O)(CC)C(C)O1)O2 (centres unmarked)
Ratio of Treated to Control, Molar % acetate [1]: 0.90
Ratio of Treated to Control, Molar % butyrate [1]: 0.68
Ratio of Treated to Control, Total VFA mM/1 [1]: 1.25

CCCCC(=O)OC1C=CC2(OC(C(CC)C(=O)C(C)C(O)C(C)C3OC(C(CC)C(=O)O)C(C)CC3C)C(C)CC2C)OC12CCC(C)(C1CCC(O)(CC)C(C)O1)O2 (centres unmarked)
Ratio of Treated to Control, Molar % acetate [1]: 0.92
Ratio of Treated to Control, Molar % butyrate [1]: 0.79
Ratio of Treated to Control, Total VFA mM/1 [1]: 1.18

CCCCCC(=O)OC1C=CC2(OC(C(CC)C(=O)C(C)C(O)C(C)C3OC(C(CC)C(=O)O)C(C)CC3C)C(C)CC2C)OC12CCC(C)(C1CCC(O)(CC)C(C)O1)O2 (centres unmarked)
Ratio of Treated to Control, Molar % acetate [1]: 0.86
Ratio of Treated to Control, Molar % butyrate [1]: 0.97
Ratio of Treated to Control, Total VFA mM/1 [1]: 0.99

CCCC(=O)OC1C=CC2(OC(C(CC)C(=O)C(C)C(O)C(C)C3OC(C(CC)C(=O)O)C(C)CC3C)C(C)CC2C)OC12CCC(C)(C1CCC(O)(CC)C(C)O1)O2 (centres unmarked)
Ratio of Treated to Control, Molar % acetate [1]: 0.91
Ratio of Treated to Control, Molar % butyrate [1]: 0.81
Ratio of Treated to Control, Total VFA mM/1 [1]: 1.19

CCC(C(=O)OC)C1OC(C(C)C(O)C(C)C(=O)C(CC)C2OC3(C=CC(O)C4(CCC(C)(C5CCC(O)(CC)C(C)O5)O4)O3)C(C)CC2C)C(C)CC1C (centres unmarked) [A-28086-I]
microbiological activity [2]: not microbiologically active

CCC(C(=O)O)C1OC(C(C)C(O)C(C)C(=O)C(CC)C2OC3(C=CC(O)C4(CCC(C)(C5CCC(O)(CC)C(C)O5)O4)O3)C(C)CC2C)C(C)CC1C (centres unmarked) [A-28086 factor A]
pKa [3]: 7.9
zone of inhibition at 1000 µg/mL [4]: 26 mm
zone of inhibition at 1000 µg/mL [5]: 28 mm
MIC [6]: 12.5 µg/mL (≈ 16.3 µM)
MIC [7]: 6.25 µg/mL (≈ 8.17 µM)
MIC [8]: 12.5 µg/mL (≈ 16.3 µM)
zone of inhibition at 1000 µg/mL [9]: 12 mm
solubility in organic solvents ([10]; methanol, ethanol, dimethylformamide, dimethyl sulfoxide, ethyl acetate, chloroform, acetone, benzene): soluble
solubility in nonpolar organic solvents ([10]; such as hexane): only slightly soluble
solubility in water ([10]; water): insoluble
Percent Improvement ([11]; 9 g per ton of feed): 12%
Percent Improvement ([11]; 18 g per ton of feed): 1%
zone of inhibition at 1000 µg/mL [12]: 19 mm
MIC [13]: < 0.5 µg/mL
MIC [14]: < 0.5 µg/mL
MIC [15]: 2 µg/mL (≈ 2.61 µM)
MIC [16]: 8 µg/mL (≈ 10.5 µM)
MIC [17]: 8 µg/mL (≈ 10.5 µM)
MIC [18]: 16 µg/mL (≈ 20.9 µM)
MIC [19]: < 0.5 µg/mL
MIC [20]: < 0.5 µg/mL
MIC [21]: 16 µg/mL (≈ 20.9 µM)
MIC [22]: < 0.5 µg/mL
MIC [23]: 2 µg/mL (≈ 2.61 µM)
MIC [24]: 1 µg/mL (≈ 1.31 µM)
MIC [25]: < 0.5 µg/mL
MIC [26]: 8 µg/mL (≈ 10.5 µM)
MIC [27]: 8 µg/mL (≈ 10.5 µM)
MIC [28]: 16 µg/mL (≈ 20.9 µM)
MIC [29]: 4 µg/mL (≈ 5.23 µM)
Ratio of Treated to Control, Molar % acetate [1]: 0.94
Ratio of Treated to Control, Molar % butyrate [1]: 0.87
Ratio of Treated to Control, Total VFA mM/1 [1]: 1.26
MIC [30]: < 0.5 µg/mL
LD50 [31]: 7.15 mg/kg
zone of inhibition at 1000 µg/mL [32]: 14 mm
MIC [33]: 6.25 µg/mL (≈ 8.17 µM)
Average Lesion Score [34]: 1.2
Oocysts Passed Percent Reduction [34]: 58%
Percent Mortality [34]: 0%
Percent Weight Gain [34]: 88%
zone of inhibition at 1000 µg/mL [35]: 17 mm
zone of inhibition at 1000 µg/mL [36]: 12 mm
antiviral activity [37]: active
MIC [38]: 6.25 µg/mL (≈ 8.17 µM)

CCC(C(=O)O)C1OC(C(C)C(O)C(C)C(=O)C(CC)C2OC3(C=CC(OC(C)=O)C4(CCC(C)(C5CCC(O)(CC)C(C)O5)O4)O3)C(C)CC2C)C(C)CC1C (centres unmarked) [A-28086 factor A acetyl ester derivative]
pKa [3]: 8.5
Ratio of Treated to Control, Molar % acetate [1]: 0.79
Ratio of Treated to Control, Molar % butyrate [1]: 0.76
Ratio of Treated to Control, Total VFA mM/1 [1]: 1.04

— US4035481A, “Antibiotic A-28086 and process for production thereof” (Eli Lilly and Company, priority 1976, dated 1977)
